IC50 data for one compound are collected here from BindingDB's records for doi:10.1016/j.bmcl.2019.126715 (Merck, 2020).

Each structure is given as a SMILES string. pIC50: −log10 of the molar value.

The target of the assay is Proto-oncogene tyrosine-protein kinase Src (Homo sapiens) (UniProt P12931). The experiment in a line: Inhibition of recombinant full length human SRCN1 expressed in baculovirus expression system using tyrosine-2 peptide as substrate incubated for 60 mins in presence of ATP by Z'-LYTE assay.
Proto-oncogene tyrosine-protein kinase Src (Homo sapiens), sequence (P12931 whole entry, looked up): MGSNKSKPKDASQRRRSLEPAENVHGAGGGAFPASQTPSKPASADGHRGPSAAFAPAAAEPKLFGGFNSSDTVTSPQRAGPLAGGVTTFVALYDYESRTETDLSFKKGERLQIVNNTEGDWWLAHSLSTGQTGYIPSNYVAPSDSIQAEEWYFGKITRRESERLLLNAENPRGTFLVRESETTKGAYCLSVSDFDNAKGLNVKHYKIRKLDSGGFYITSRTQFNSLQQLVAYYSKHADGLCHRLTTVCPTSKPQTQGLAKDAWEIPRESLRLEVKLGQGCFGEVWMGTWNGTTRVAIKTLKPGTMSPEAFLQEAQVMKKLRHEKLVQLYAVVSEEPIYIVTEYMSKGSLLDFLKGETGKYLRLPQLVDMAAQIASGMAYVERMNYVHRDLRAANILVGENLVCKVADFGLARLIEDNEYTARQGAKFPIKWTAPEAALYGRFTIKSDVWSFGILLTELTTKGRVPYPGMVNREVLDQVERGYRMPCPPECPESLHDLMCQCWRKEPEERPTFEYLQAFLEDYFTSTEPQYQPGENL

Regarding `C[C@@H]1C[C@H]1C(=O)N1CCN(c2cnc(C#N)c(-c3cnn(C)c3)n2)C[C@H]1C`, the pIC50 (as a rule, the negative decadic logarithm of the IC50, by convention in mol/L) was below 4.00.
